Measured values from ChEMBL document CHEMBL1201862, “PubChem BioAssay data set” (2004).
“And” between values parts separate entries of the source, which are not always exact repeats. Identical values can stand only once.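 Step 1: Grow cells in 96-well plates. Step 2: Expose to compound for 48 hours at 5 concentrations. Step 3: Interpolate endpoints linearly; if unreached, use highest concentration. GI50 marks 50% less growth.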 The source made the active and inactive calls. No stated cut-off is given here; in the data, active = GI50 up to about 1.1 µM and inactive = higher.

Columns and labels:
Assay in all cases: inhibition of tumour cell growth, NCI panel, 48 h
NCI-H460 = system: NCI-H460
SF-295 = system: SF-295
MCF7 = system: MCF7
UO-31 = system: UO-31
NCI-H23 = system: NCI-H23
HCT-15 = system: HCT-15
SW-620 = system: SW-620
A549 = system: A549
SK-MEL-2 = system: SK-MEL-2
HCC 2998 = system: HCC 2998
SK-MEL-28 = system: SK-MEL-28
SR = system: SR
PC-3 = system: PC-3
CAKI-1 = system: CAKI-1
SF-539 = system: SF-539
HOP-92 = system: HOP-92
BT-549 = system: BT-549
NCI-H522 = system: NCI-H522
HCT-116 = system: HCT-116

Row | Compound | GI50 (NCI-H460) | GI50 (SF-295) | GI50 (MCF7) | GI50 (UO-31) | GI50 (NCI-H23) | GI50 (HCT-15) | GI50 (SW-620) | GI50 (A549) | GI50 (SK-MEL-2) | GI50 (HCC 2998) | GI50 (SK-MEL-28) | GI50 (SR) | GI50 (PC-3) | GI50 (CAKI-1) | GI50 (SF-539) | GI50 (HOP-92) | GI50 (BT-549) | GI50 (NCI-H522) | GI50 (HCT-116)
1 | CCC(C)C1=C(O)[N+]2([O-])Oc3ccc(-c4c(O)c(O)c(-c5ccc(OC(C)=O)cc5)c(OC(C)=O)c4OC(C)=O)cc3OC2(C(C)CC)C(=O)N1O (stereo not given) | > 50 µM (inactive) | > 50 µM (inactive) | > 50 µM (inactive) | > 50 µM (inactive) | > 50 µM (inactive) | > 50 µM | 24.2 µM (inactive) | > 50 µM (inactive) and 29.2 µM (inactive) | > 50 µM (inactive) | 11.9 µM (inactive) | 46.1 µM (inactive) | 22.3 µM (inactive) and 13.9 µM (inactive) | > 50 µM (inactive) | > 50 µM (inactive) | > 50 µM (inactive) | 8.17 µM (inactive) and 10 µM (inactive) | 45.6 µM (inactive) | 14.4 µM (inactive) and 16.1 µM (inactive) | –
2 | CC(C)=CC(=O)C[C@H]1C(=O)O[C@@H]2C[C@H]3C(C)=CC(=O)[C@@H](O)[C@]3(C)[C@H]3[C@@]4(O)OC[C@]32[C@@H]1[C@@H](C)[C@H]4O | < 0.01 µM (active) | 0.023 µM (active) | < 0.01 µM (active) | 0.0605 µM (active) | < 0.01 µM (active) | 0.0382 µM | 0.0281 µM (active) | 0.122 µM (active) | 0.0311 µM (active) | 0.0313 µM (active) | < 0.0114 µM (active) | < 0.01 µM (active) | 0.0159 µM (active) | 0.0975 µM (active) | < 0.01 µM (active) | 0.0216 µM (active) | 0.0213 µM (active) | – | < 0.01 µM (active)
3 | Cc1cc2c(C)cc(=O)[nH]c2cc1N | 65.5 µM (inactive) | > 100 µM (inactive) | 67.5 µM (inactive) | > 100 µM (inactive) | > 100 µM (inactive) | > 100 µM | > 100 µM (inactive) | > 100 µM (inactive) | – | 61.4 µM (inactive) | > 100 µM (inactive) | > 100 µM (inactive) | 34.8 µM (inactive) | > 100 µM (inactive) | > 100 µM (inactive) | > 100 µM (inactive) | > 100 µM (inactive) | – | > 100 µM (inactive)
4 | O=C1C/C(=C\O)C(=O)c2ccccc2N1 | > 100 µM (inactive) | > 100 µM (inactive) | > 100 µM (inactive) | > 100 µM (inactive) | > 100 µM (inactive) | > 100 µM | – | > 100 µM (inactive) | > 100 µM (inactive) | > 100 µM (inactive) | > 100 µM (inactive) | > 100 µM (inactive) | > 100 µM (inactive) | > 100 µM (inactive) | > 100 µM (inactive) | > 100 µM (inactive) | > 100 µM (inactive) | > 100 µM (inactive) | > 100 µM (inactive)
5 | C=C(Cl)C(Cl)(CCl)CCC(Br)C(C)(C)Br (stereo not given) | – | > 10 µM (inactive) | > 10 µM (inactive) | > 10 µM (inactive) | > 10 µM (inactive) | > 10 µM | > 10 µM (inactive) | > 10 µM (inactive) | > 10 µM (inactive) | > 10 µM (inactive) | > 10 µM (inactive) | > 10 µM (inactive) | > 10 µM (inactive) | > 10 µM (inactive) | > 10 µM (inactive) | > 10 µM (inactive) | > 10 µM (inactive) | > 10 µM (inactive) | > 10 µM (inactive)
6 | C[N+]1(CCC(=O)c2ccco2)CC2CCC(CC2)C1 (stereo not given) | > 100 µM (inactive) | > 100 µM (inactive) | > 100 µM (inactive) | > 100 µM (inactive) | > 100 µM (inactive) | > 100 µM | > 100 µM (inactive) | > 100 µM (inactive) | > 100 µM (inactive) | – | > 100 µM (inactive) | > 100 µM (inactive) | > 100 µM (inactive) | > 100 µM (inactive) | > 100 µM (inactive) | > 100 µM (inactive) | > 100 µM (inactive) | > 100 µM (inactive) | > 100 µM (inactive)
7 | N#Cc1ccc(C(O)C(F)(F)c2nc3ccccc3o2)cc1 (stereo not given) | > 100 µM (inactive) | 41.8 µM (inactive) | 46.1 µM (inactive) | 30.3 µM (inactive) | > 100 µM (inactive) | > 100 µM | > 100 µM (inactive) | – | > 100 µM (inactive) | > 100 µM (inactive) | > 100 µM (inactive) | 86.9 µM (inactive) | 33.1 µM (inactive) | 31 µM (inactive) | 43.9 µM (inactive) | 53.3 µM (inactive) | 71.4 µM (inactive) | – | 92.3 µM (inactive)
8 | O=S(=O)(O)c1c(Cl)cc(O)c2ncccc12 | > 100 µM (inactive) | > 100 µM (inactive) | > 100 µM (inactive) | > 100 µM (inactive) | > 100 µM (inactive) | > 100 µM | > 100 µM (inactive) | > 100 µM (inactive) | > 100 µM (inactive) | > 100 µM (inactive) | > 100 µM (inactive) | > 100 µM (inactive) | > 100 µM (inactive) | > 100 µM (inactive) | > 100 µM (inactive) | > 100 µM (inactive) | > 100 µM (inactive) | – | > 100 µM (inactive)
9 | COC(=O)C(=O)C(C(=O)C(=O)Nc1ccccc1OC)c1nc2ccc([N+](=O)[O-])cc2nc1O (stereo not given) | 58.2 µM (inactive) | > 100 µM (inactive) | > 100 µM (inactive) | 45.3 µM (inactive) | – | 41.4 µM | > 100 µM (inactive) | > 100 µM (inactive) | > 100 µM (inactive) | > 100 µM (inactive) | > 100 µM (inactive) | > 100 µM (inactive) | > 100 µM (inactive) | > 100 µM (inactive) | > 100 µM (inactive) | > 100 µM (inactive) | > 100 µM (inactive) | 65.2 µM (inactive) | > 100 µM (inactive)
10 | O=CN(O)CC(=O)O | > 100 µM (inactive) | > 100 µM (inactive) | > 100 µM (inactive) | > 100 µM (inactive) | > 100 µM (inactive) | > 100 µM | > 100 µM (inactive) | > 100 µM (inactive) | > 100 µM (inactive) | > 100 µM (inactive) | > 100 µM (inactive) | > 100 µM (inactive) | > 100 µM (inactive) | – | > 100 µM (inactive) | > 100 µM (inactive) | > 100 µM (inactive) | – | > 100 µM (inactive)
11 | CN(C)Cc1cc(C(=O)/C=C/c2ccccc2)cc(CN(C)C)c1O | 15.9 µM (inactive) | 15.5 µM (inactive) | 30.8 µM (inactive) | 17.5 µM (inactive) | 28.1 µM (inactive) | 30.3 µM | 18.2 µM (inactive) | 23.4 µM (inactive) | – | 21.3 µM (inactive) | 20.6 µM (inactive) | 19.7 µM (inactive) | 12.6 µM (inactive) | 36.1 µM (inactive) | 19.7 µM (inactive) | 26.7 µM (inactive) | 19.9 µM (inactive) | 19.5 µM (inactive) | 19.7 µM (inactive)
